Consider one molecule from ChEMBL document CHEMBL6103628, “Structural Optimization of Covalent Inhibitors for Deubiquitinase ChlaDUB1 of Chlamydia trachomatis as Antibiotic Agents” (J Med Chem, 2025).

As usually defined, the inhibition is the share of the control response that was lost under treatment. A word on the IC50: it is the concentration at which inhibition is half-maximal.

In data set [1] the target is T1, Deubiquitinase and deneddylase Dub1 (Chlamydia trachomatis serovar L2 (strain ATCC VR-902B / DSM 19102 /434/Bu)) (UniProt B0B9A0).
T1 sequence (whole entry): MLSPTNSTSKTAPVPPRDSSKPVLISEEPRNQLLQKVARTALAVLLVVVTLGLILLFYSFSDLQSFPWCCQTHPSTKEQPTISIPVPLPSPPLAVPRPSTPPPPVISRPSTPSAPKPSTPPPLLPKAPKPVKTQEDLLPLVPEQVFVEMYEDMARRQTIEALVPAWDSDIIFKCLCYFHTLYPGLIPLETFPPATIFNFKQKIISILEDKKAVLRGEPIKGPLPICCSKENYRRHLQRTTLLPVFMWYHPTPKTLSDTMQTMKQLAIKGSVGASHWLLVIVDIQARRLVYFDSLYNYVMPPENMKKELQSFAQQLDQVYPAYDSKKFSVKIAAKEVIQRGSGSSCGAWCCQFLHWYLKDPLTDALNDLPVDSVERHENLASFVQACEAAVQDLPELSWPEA
As to the kind of experiment: Inhibition of recombinant Chlamydia trachomatis DUB1 (130 to 401 residues) using Ub-Rh110Gly as fluorogenic substrate at 100 to 500 uM incubated for 20 to 240 mins by enzymatic analysis relative to control. As to conditions: dose 100-500 µM, time 20-240 min.

A short description of data set [2]: Cytotoxicity against HDFa cells assessed as cell viability at 128 ug/mL measured after 20 hrs by XTT assay relative to control. It counts as toxicity, cell-based. As to conditions: human, at 128 µg/mL, read-out: Activity. Background: Tetrazolium assays rely on reduction of a dye to a coloured formazan, in cell work by metabolically active cells.
In data set [3] the target is T2, Deubiquitinase and deneddylase Dub2 (Chlamydia trachomatis) (UniProt O84875).
T2 sequence (whole entry): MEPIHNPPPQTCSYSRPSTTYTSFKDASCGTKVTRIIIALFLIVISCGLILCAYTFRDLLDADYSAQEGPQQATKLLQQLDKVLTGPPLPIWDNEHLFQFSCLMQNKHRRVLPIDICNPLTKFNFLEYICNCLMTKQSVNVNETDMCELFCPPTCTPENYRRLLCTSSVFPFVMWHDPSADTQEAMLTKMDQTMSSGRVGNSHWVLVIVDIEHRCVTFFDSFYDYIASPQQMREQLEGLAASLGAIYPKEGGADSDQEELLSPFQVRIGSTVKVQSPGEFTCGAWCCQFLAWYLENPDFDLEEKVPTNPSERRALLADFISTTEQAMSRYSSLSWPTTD
The data set is described as follows: Mixed type inhibition of Chlamydia trachomatis DUB2 incubated for 60 mins.

Data set [4] addresses T1, Deubiquitinase and deneddylase Dub1 (Chlamydia trachomatis serovar L2 (strain ATCC VR-902B / DSM 19102 /434/Bu)). The data set is described as follows: Inhibition of recombinant Chlamydia trachomatis DUB1 (130 to 401 residues) using Ub-Rh110Gly as fluorogenic substrate at highest concentration incubated for 60 to 360 mins by enzymatic analysis. The following applies: time 60-360 min.

For data set [5], the target named is T3, Ubiquitin carboxyl-terminal hydrolase 28 (Homo sapiens) (UniProt Q96RU2).
T3 sequence (whole entry): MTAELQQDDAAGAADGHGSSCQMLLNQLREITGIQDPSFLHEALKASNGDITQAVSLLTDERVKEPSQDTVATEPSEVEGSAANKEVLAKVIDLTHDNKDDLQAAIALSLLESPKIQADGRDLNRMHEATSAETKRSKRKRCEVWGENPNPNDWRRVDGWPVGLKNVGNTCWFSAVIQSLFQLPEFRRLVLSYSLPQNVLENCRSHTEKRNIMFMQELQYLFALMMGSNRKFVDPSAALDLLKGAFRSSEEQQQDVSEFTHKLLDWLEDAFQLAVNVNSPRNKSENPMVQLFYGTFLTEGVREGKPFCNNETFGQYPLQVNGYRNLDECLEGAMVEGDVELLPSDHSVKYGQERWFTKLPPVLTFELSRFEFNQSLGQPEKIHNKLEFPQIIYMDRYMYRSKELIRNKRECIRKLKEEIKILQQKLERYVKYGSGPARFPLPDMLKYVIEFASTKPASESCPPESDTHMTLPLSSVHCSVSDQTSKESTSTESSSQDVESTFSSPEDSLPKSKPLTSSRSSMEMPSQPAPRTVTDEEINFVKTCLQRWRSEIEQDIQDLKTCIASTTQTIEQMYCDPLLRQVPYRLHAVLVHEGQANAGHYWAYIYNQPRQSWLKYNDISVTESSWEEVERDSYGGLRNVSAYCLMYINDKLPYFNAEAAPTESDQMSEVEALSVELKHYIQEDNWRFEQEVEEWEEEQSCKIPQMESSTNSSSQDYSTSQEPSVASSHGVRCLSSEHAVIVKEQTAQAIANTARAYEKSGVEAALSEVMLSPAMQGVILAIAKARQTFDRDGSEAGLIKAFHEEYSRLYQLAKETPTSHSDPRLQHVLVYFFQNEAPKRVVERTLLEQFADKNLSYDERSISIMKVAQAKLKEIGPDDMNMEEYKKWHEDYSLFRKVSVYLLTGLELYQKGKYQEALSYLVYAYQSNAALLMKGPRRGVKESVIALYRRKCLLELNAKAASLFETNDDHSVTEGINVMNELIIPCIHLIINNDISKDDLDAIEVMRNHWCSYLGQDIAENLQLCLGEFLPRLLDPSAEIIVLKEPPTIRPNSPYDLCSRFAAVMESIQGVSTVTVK
As to the kind of experiment: Inhibition of human USP28 at 35 uM relative to control.

Data set [6] deals with Ubiquitin carboxyl-terminal hydrolase 7 (Homo sapiens) (UniProt Q93009). As to the kind of experiment: Inhibition of human USP7 at 35 uM relative to control.
Ubiquitin carboxyl-terminal hydrolase 7 (Homo sapiens), sequence (Q93009 whole entry, looked up): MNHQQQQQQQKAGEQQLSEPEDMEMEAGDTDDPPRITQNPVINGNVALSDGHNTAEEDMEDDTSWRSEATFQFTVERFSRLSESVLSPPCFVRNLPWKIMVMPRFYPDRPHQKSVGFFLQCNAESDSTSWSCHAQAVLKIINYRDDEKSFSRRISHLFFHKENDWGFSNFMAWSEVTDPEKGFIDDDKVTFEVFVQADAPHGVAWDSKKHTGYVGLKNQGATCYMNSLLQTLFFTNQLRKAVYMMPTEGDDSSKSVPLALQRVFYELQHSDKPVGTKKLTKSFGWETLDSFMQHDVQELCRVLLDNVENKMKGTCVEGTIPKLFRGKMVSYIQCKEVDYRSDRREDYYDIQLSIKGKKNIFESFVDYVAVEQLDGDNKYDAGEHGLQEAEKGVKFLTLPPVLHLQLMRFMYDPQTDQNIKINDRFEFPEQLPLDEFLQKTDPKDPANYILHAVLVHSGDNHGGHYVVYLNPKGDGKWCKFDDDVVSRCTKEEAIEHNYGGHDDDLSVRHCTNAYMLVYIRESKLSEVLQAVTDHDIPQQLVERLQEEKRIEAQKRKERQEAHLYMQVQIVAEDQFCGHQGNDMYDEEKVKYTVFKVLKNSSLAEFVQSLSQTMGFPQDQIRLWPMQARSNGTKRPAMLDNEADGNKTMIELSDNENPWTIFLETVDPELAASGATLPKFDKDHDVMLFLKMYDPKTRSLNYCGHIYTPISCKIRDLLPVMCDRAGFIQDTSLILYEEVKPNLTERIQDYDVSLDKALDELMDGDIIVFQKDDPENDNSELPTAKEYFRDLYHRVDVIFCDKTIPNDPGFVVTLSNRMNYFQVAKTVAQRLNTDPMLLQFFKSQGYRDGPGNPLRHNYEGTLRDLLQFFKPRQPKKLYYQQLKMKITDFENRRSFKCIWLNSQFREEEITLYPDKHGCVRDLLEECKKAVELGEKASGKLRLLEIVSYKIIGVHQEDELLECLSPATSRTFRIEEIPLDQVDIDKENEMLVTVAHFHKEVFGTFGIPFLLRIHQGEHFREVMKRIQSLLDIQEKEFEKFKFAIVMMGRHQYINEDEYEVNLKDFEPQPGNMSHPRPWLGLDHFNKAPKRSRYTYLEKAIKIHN
The test system of a further data set is HEp-2. As to the kind of experiment: Cytotoxicity against human HEp-2 cells assessed as reduction in cell viability at 4 to 256 ug/mL measured after 20 hrs by XTT assay. It counts as toxicity, cell-based. The following applies: hep-2, 20 h, dose 4-256 µg/ml.
Data set [7] concerns the target T4, Deubiquitinase and deneddylase Dub2 (Chlamydia trachomatis, UniProt O84875).
T4 sequence (O84875 whole entry): T2 sequence (whole entry)
The data set is described as follows: Inhibition of Chlamydia trachomatis DUB2 incubated for 60 mins.

In data set [8] the target is T5, Deubiquitinase and deneddylase Dub1 (Chlamydia trachomatis serovar L2 (strain ATCC VR-902B / DSM 19102 /434/Bu), UniProt B0B9A0).
T5 sequence (B0B9A0 whole entry): T1 sequence (whole entry)
The data set is described as follows: Inhibition of recombinant Chlamydia trachomatis DUB1 (130 to 401 residues) using Ub-Rh110Gly as fluorogenic substrate incubated for 60 mins by enzymatic analysis. As to conditions: read-out: IC50.

Data set [9] has as its target Ubiquitin carboxyl-terminal hydrolase isozyme L1 (Homo sapiens) (UniProt P09936). As to the kind of experiment: Inhibition of human UCHL1 at 35 uM relative to control.
For the next data set, the system named is HEK293. As to the kind of experiment: Cytotoxicity against HEK293 cells assessed as reduction in cell viability upto 64 ug/mL measured after 20 hrs by XTT assay. As to conditions: human, hek293, 20 h, dose < 64 µg/ml. It counts as toxicity, cell-based.

Active and inactive are the calls of the source. No cut-off for these calls is given here. Where only a bound is given, the exact number is not on record here.

Ubiquitin carboxyl-terminal hydrolase isozyme L1 (Homo sapiens), sequence (P09936 whole entry, looked up): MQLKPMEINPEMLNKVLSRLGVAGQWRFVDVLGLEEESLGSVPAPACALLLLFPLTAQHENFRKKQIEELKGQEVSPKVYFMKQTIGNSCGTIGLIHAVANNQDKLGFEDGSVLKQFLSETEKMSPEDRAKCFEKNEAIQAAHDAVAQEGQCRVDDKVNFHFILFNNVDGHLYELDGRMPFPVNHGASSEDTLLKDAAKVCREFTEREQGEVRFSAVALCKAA

On to `N#Cc1nccc(C(=O)NCc2nn(C(=O)Cc3ccccc3)c3ccccc23)n1`, for which the inhibition entry in [1] is “Active; Partial Inhibition Observed”; in data set [4] it was “Active; Complete Inhibition Not Observed”; in [5] it was less than 25%; in data set [6], less than 25%; in data set [9] it was less than 25%. The viability at 20 h, 128 ug/mL in [2] was found to be 67%. Besides, in data set [3], the inhibition result was “Active”. Further, the Activity entry in the data set with HEp-2 and in the data set with HEK293 was “Non-toxic” throughout. Further, the IC50 in data set [7] was determined as 30 µM; in data set [8], 0.97 µM.
